pEC50, pIC50: −log10 of the molar value. Like-named read-outs stand apart in the source and are kept apart here.
Key:
[1] = target: p38α activated, mitogen-activated protein kinase-activated protein kinase 2 (MAPKAP-K2 or MK2) enzyme (Homo sapiens (Human), UniProt P49137); assay: MK2 Omnia continuous-read kinase assay for compound potency; format: biochemical; conditions: read-out: MK2 IC50
In short: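 Activated MK2 (0.4 nM) was run with S/T3-Sox peptide and ATP, each at 10 μM (ATP at apparent KM), and Sox fluorescence was followed every 71 s for 2 h at room temperature. IC50 came from linear initial rates after no-enzyme subtraction, and apparent kinact/KI from kobs of single-exponential fits.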

[2] = target: T1, MK2 (Homo sapiens (Human), UniProt P49137); assay: MK2 cellular assay, total and phospho-Hsp27 (Serine 78) by MSD ELISA (Thp1); format: cell-based; conditions: Thp-1 cells, 1 hour compound, 50 ng/mL LPS 45 minutes, p-HSP27 (Ser78)/total HSP27; read-out: pHSP27 signaling EC50
In short: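 PMA-differentiated (10 ng/mL, 72 h) Thp-1 cells were pretreated with compound (top 3000 nM) for 1 h at 37 °C, then stimulated with 50 ng/mL LPS for 45 min. Lysate phospho-Hsp27 (Ser78) and total Hsp27 were read by MSD electrochemiluminescence ELISA, and the value is expressed as percent phospho/total signal per well.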

[3] = target: T1, MK2
[4] = [MK-2]=0.4 nM, [ATP]=10 μM, [ST3-Sox]=10 μM
[5] = percentage of modified protein after 60 minutes at room temperature, 10-fold excess of compound, MALDI (I-1 to I-50), magnetic bead MALDI (I-51 to I-129)
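For Mass Modification in this document: covalent binding read from centroid mass shift of compound-treated versus untreated intact MK2, shift divided by compound molecular weight, giving fraction of total protein bound.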

Sequence of p38α activated, mitogen-activated protein kinase-activated protein kinase 2 (MAPKAP-K2 or MK2) enzyme (P49137 whole entry): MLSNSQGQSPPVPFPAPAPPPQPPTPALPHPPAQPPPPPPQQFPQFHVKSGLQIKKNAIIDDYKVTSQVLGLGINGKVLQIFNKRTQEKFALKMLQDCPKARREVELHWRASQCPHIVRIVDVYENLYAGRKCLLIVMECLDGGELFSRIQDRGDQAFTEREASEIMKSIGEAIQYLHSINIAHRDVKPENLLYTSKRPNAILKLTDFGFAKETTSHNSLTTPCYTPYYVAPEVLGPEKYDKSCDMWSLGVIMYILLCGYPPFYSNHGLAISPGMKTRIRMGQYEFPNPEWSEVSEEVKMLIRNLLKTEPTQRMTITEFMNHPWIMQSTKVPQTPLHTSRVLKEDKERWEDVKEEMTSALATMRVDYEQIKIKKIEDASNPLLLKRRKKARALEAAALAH
T1 sequence (P49137 whole entry): as above

Compound | pIC50 [1, 4] | pEC50 [2] | Mass Modification [3, 5] | pIC50 [1] | Mass Modification [3]
COCc1nc(Cl)cc(Oc2ccc3c(ccc4sc5c(c43)NC[C@@H](C)NC5=O)n2)n1 [I-57, (R)-3-((6-chloro-2-(methoxymethyl)pyrimidin-4-yl)oxy)-10-methyl-9,10,11,12-tetrahydro-8H-[1,4]diazepino[5′,6′:4,5]thieno[3,2-f]quinolin-8-one] | > 7.00 | > 7.00 | E (mass modification of ≧70%) |  | 
Cc1nc(Cl)cc(Oc2ccc3c(ccc4sc5c(c43)NC[C@@H](C)NC5=O)n2)n1 [I-58, (R)-3-((6-chloro-2-methylpyrimidin-4-yl)oxy)-10-methyl-9,10,11,12-tetrahydro-8H-[1,4]diazepino[5′,6′:4,5]thieno[3,2-f]quinolin-8-one] | > 7.00 | > 7.00 | E (mass modification of ≧70%) |  | 
C[C@@H]1CNc2c(sc3ccc4nc(Nc5cc(Cl)nc(OC6CCCN(C)C6)n5)ccc4c23)C(=O)N1 (stereo partly drawn) [I-59, (10R)-3-((6-chloro-2-((1-methylpiperidin-3-yl)oxy)pyrimidin-4-yl)amino)-10-methyl-9,10,11,12-tetrahydro-8H-[1,4]diazepino[5′,6′:4,5]thieno[3,2-f]quinolin-8-one] | > 7.00 | 6.00 to 6.30 | E (mass modification of ≧70%) |  | 
C[C@@H]1CNc2c(sc3ccc4nc(Nc5cc(Cl)nc(O[C@@H]6CCN(C)C6)n5)ccc4c23)C(=O)N1 [I-60, (R)-3-((6-chloro-2-(((R)-1-methylpyrrolidin-3-yl)oxy)pyrimidin-4-yl)amino)-10-methyl-9,10,11,12-tetrahydro-H-[1,4]diazepino[5′,6′:4,5]thieno[3,2-f]quinolin-8-one] | > 7.00 | 6.30 to 7.00 | F (mass modification of 31-69%) |  | 
C[C@@H]1CNc2c(sc3ccc4nc(Nc5nc(Cl)cc(OCCN6CCN(C)CC6)n5)ccc4c23)C(=O)N1 [I-61, (R)-3-((4-chloro-6-(2-(4-methylpiperazin-1-yl)ethoxy)pyrimidin-2-yl)amino)-10-methyl-9,10,11,12-tetrahydro-8H-[1,4]diazepino[5′,6′:4,5]thieno[3,2-f]quinolin-8-one] | > 7.00 | < 6.00 | G (mass modification ≦30%) |  | 
C[C@@H]1CNc2c(sc3ccc4nc(Oc5nc(Cl)nc(N6CCCC6)n5)ccc4c23)C(=O)N1 [I-62, (R)-3-((4-chloro-6-(pyrrolidin-1-yl)-1,3,5-triazin-2-yl)oxy)-10-methyl-9,10,11,12-tetrahydro-8H-[1,4]diazepino[5′,6′:4,5]thieno[3,2-f]quinolin-8-one] | > 7.00 | 6.30 to 7.00 | E (mass modification of ≧70%) |  | 
C[C@@H]1CNc2c(sc3ccc4nc(Oc5nc(Cl)nc(N6CCOCC6)n5)ccc4c23)C(=O)N1 [I-63, (R)-3-((4-chloro-6-morpholino-1,3,5-triazin-2-yl)oxy)-10-methyl-9,10,11,12-tetrahydro-8H-[1,4]diazepino[5′,6′:4,5]thieno[3,2-f]quinolin-8-one] | > 7.00 | > 7.00 | E (mass modification of ≧70%) |  | 
C[C@@H]1CNc2c(sc3ccc4nc(Oc5nc(Cl)nc(N6CCCCC6)n5)ccc4c23)C(=O)N1 [I-64, (R)-3-((4-chloro-6-(piperidin-1-yl)-1,3,5-triazin-2-yl)oxy)-10-methyl-9,10,11,12-tetrahydro-8H-[1,4]diazepino[5′,6′:4,5]thieno[3,2-f]quinolin-8-one] | > 7.00 | < 6.00 | E (mass modification of ≧70%) |  | 
Cc1nc(F)cc(Oc2ccc3c(ccc4sc5c(c43)NC[C@@H](C)NC5=O)n2)n1 [I-65, (R)-3-((6-fluoro-2-methylpyrimidin-4-yl)oxy)-10-methyl-9,10,11,12-tetrahydro-8H-[1,4]diazepino[5′,6′:4,5]thieno[3,2-f]quinolin-8-one] | > 7.00 | 6.30 to 7.00 | E (mass modification of ≧70%) |  | 
C[C@@H]1CNc2c(sc3ccc4nc(Nc5cc(Cl)nc(OCCN6CCN(C)CC6)n5)ccc4c23)C(=O)N1 [I-66, (R)-3-((6-chloro-2-(2-(4-methylpiperazin-1-yl)ethoxy)pyrimidin-4-yl)amino)-10-methyl-9,10,11,12-tetrahydro-8H-[1,4]diazepino[5′,6′:4,5]thieno[3,2-f]quinolin-8-one] | > 7.00 | 6.30 to 7.00 | F (mass modification of 31-69%) |  | 
COCCOc1nc(Cl)cc(Nc2ccc3c(ccc4sc5c(c43)NC[C@@H](C)NC5=O)n2)n1 [I-67, (R)-3-((6-chloro-2-(2-methoxyethoxy)pyrimidin-4-yl)amino)-10-methyl-9,10,11,12-tetrahydro-8H-[1,4]diazepino[5′,6′:4,5]thieno[3,2-f]quinolin-8-one] | > 7.00 | 6.30 to 7.00 | F (mass modification of 31-69%) |  | 
C[C@@H]1CNc2c(sc3ccc4nc(Oc5cc(Cl)nc(CO)n5)ccc4c23)C(=O)N1 [I-68, (R)-3-((6-chloro-2-(hydroxymethyl)pyrimidin-4-yl)oxy)-10-methyl-9,10,12-tetrahydro-8H-[1,4]diazepino[5′,6′:4,5]thieno[3,2-f]quinolin-8-one] | > 7.00 | > 7.00 | E (mass modification of ≧70%) |  | 
COC(=O)c1nc(Cl)cc(Nc2ccc3c(ccc4sc5c(c43)NC[C@@H](C)NC5=O)n2)n1 [I-70, (R)-methyl 4-chloro-6-((10-methyl-8-oxo-9,10,11,12-tetrahydro-8H-[1,4]diazepino[5′,6′:4,5]thieno[3,2-f]quinolin-3-yl)amino)pyrimidine-2-carboxylate] |  | > 7.00 |  | > 7.00 | E (key: E: mass modification of ≧70%; F: mass modification of 31-69%; G: mass modification ≦30%)
COC(=O)c1nc(Cl)cc(Oc2ccc3c(ccc4sc5c(c43)NC[C@@H](C)NC5=O)n2)n1 [I-71, (R)-methyl 4-chloro-6-((10-methyl-8-oxo-9,10,11,12-tetrahydro-8H-[1,4]diazepino[5′,6′:4,5]thieno[3,2-f]quinolin-3-yl)oxy)pyrimidine-2-carboxylate] | > 7.00 | > 7.00 | E (mass modification of ≧70%) |  | 
C[C@@H]1CNc2c(sc3ccc4nc(Sc5ccnc(Cl)n5)ccc4c23)C(=O)N1 [I-72, (R)-3-((2-chloropyrimidin-4-yl)thio)-10-methy-9,10,11,12-tetrahydro-8H-[1,4]diazepino[5′,6′:4,5]thieno[3,2-f]quinolin-8-one] | > 7.00 | < 6.00 | G (mass modification ≦30%) |  | 
C[C@@H]1CNc2c(sc3ccc4nc(Nc5cc(F)nc(CN6CCN(C)CC6)n5)ccc4c23)C(=O)N1 [I-73, (R)-3-((6-fluoro-2-((4-methylpiperazin-1-yl)methyl)pyrimidin-4-yl)amino)-10-methyl-9,10,11,12-tetrahydro-8H-[1,4]diazepino[5′,6′:4,5]thieno[3,2-f]quinolin-8-one] | > 7.00 | < 6.00 | G (mass modification ≦30%) |  | 
C[C@@H]1CNc2c(sc3ccc4nc(Nc5cc(F)nc(CN6CCCCC6)n5)ccc4c23)C(=O)N1 [I-74, (R)-3-((6-fluoro-2-(piperidin-1-ylmethyl)pyrimidin-4-yl)amino)-10-methyl-9,10,11,12-tetrahydro-8H-[1,4]diazepino[5′,6′:4,5]thieno[3,2-f]quinolin-8-one] | > 7.00 | > 7.00 | E (mass modification of ≧70%) |  | 
C[C@@H]1CNc2c(sc3ccc4nc(Oc5nc(Cl)nc(N(C)C)n5)ccc4c23)C(=O)N1 [I-75, (R)-3-((4-chloro-6-(dimethylamino)-1,3,5-triazin-2-yl)oxy)-10-methyl-9,10,11,12-tetrahydro-8H-[1,4]diazepino[5′,6′:4,5]thieno[3,2-f]quinolin-8-one] | > 7.00 | > 7.00 | E (mass modification of ≧70%) |  | 
COc1nc(Cl)nc(Oc2ccc3c(ccc4sc5c(c43)NC[C@@H](C)NC5=O)n2)n1 [I-76, (R)-3-((4-chloro-6-methoxy-1,3,5-triazin-2-yl)oxy)-10-methyl-9,10,11,12-tetrahydro-8H-[1,4]diazepino[5′,6′:4,5]thieno[3,2-f]quinolin-8-one] | > 7.00 | < 6.00 | E (mass modification of ≧70%) |  | 
C[C@@H]1CNc2c(sc3ccc4nc(Oc5cnnc(Cl)c5)ccc4c23)C(=O)N1 [I-79, (R)-3-((6-chloropyridazin-4-yl)oxy)-10-methyl-9,10,11,12-tetrahydro-8H-[1,4]diazepino[5′,6′:4,5]thieno[3,2-f]quinolin-8-one] | > 7.00 | 6.30 to 7.00 | E (mass modification of ≧70%) |  | 
C[C@@H]1CNc2c(sc3ccc4nc(Oc5nc(Cl)ncc5CN5CC6CC6C5)ccc4c23)C(=O)N1 (stereo partly drawn) [I-83, ((1OR)-3-((5-(3-azabicyclo[3.1.0]hexan-3-yl)methyl)-2-chloropyrimidin-4-yl)oxy)-10-methyl-9,10,11,12-tetrahydro-8H-[1,4]diazepino[5′,6′:4,5]thieno[3,2-f]quinolin-8-one] | 6.30 to 7.00 | > 7.00 | E (mass modification of ≧70%) |  | 

Reference: patent US9790235B2, “MK2 inhibitors and uses thereof” (Celgene CAR LLC, priority 2014, dated 2017)
